Test results taken from ChEMBL document CHEMBL1201862, “PubChem BioAssay data set” (2004).
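Interpolation was linear, between the two tested concentrations surrounding the appropriate level; five concentrations were tested over 48 hours in 96-well plates. At the GI50, growth is halved.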 Activity calls are given as the source filed them. No stated cut-off is given here; in the data, active = GI50 up to about 1.1 µM and inactive = higher.

Key:
Assay in all cases: inhibition of tumour cell growth, NCI panel, 48 h
A498 = tested on: A498
MDA-MB-435 = tested on: MDA-MB-435
KM12 = tested on: KM12
SR = tested on: SR
T47D = tested on: T47D
SW-620 = tested on: SW-620
SF-268 = tested on: SF-268
UACC-257 = tested on: UACC-257
SK-MEL-5 = tested on: SK-MEL-5
DU-145 = tested on: DU-145
SN12C = tested on: SN12C
U-251 = tested on: U-251
NCI-H23 = tested on: NCI-H23
LOX IMVI = tested on: LOX IMVI
PC-3 = tested on: PC-3
EKVX = tested on: EKVX
HT-29 = tested on: HT-29
SK-OV-3 = tested on: SK-OV-3
MCF7 = tested on: MCF7
SK-MEL-28 = tested on: SK-MEL-28

Measured: GI50

O=[N+]([O-])c1ccc2c(c1)C1=C(CO2)Cc2ccccc2O1
inactive: A498 63.8 µM | MDA-MB-435 25.6 µM | KM12 20.1 µM | SR 18.9 µM | T47D 10.9 µM | SW-620 21.3 µM | SF-268 21.3 µM | UACC-257 17.8 µM | SK-MEL-5 15.8 µM | DU-145 33.9 µM | SN12C 25.9 µM | U-251 17.6 µM | NCI-H23 22 µM | LOX IMVI 14.8 µM | PC-3 19.1 µM | EKVX 27.2 µM | HT-29 26.2 µM | SK-OV-3 74.5 µM

O=c1[nH]c(=O)n(COCc2ccccc2)c2ccccc12
inactive: A498 > 100 µM | MDA-MB-435 > 100 µM | KM12 59.8 µM | SR 37 µM | SW-620 > 100 µM | UACC-257 53.7 µM | SK-MEL-5 27.7 µM | DU-145 > 100 µM | MCF7 38 µM | SN12C > 100 µM | U-251 52.1 µM | LOX IMVI 95.3 µM | PC-3 39.7 µM | SK-MEL-28 91.4 µM | EKVX 22.5 µM | HT-29 31.9 µM | SK-OV-3 89.9 µM

CC(C)=CC1C(COC(=O)c2cc3c(cc2Cl)OCO3)C1(C)C (stereo unspecified)
inactive: A498 31.5 µM | MDA-MB-435 28 µM | KM12 28.2 µM | SR 21.3 µM | T47D 39.1 µM | SW-620 33.1 µM | SF-268 19.3 µM | UACC-257 40.3 µM | SK-MEL-5 20 µM | DU-145 28.4 µM | SN12C 39.5 µM | U-251 26.8 µM | NCI-H23 33.3 µM | LOX IMVI 22.3 µM | PC-3 35.5 µM | SK-MEL-28 38.8 µM | EKVX 30.4 µM | HT-29 33 µM

O=C(O)C1C(=O)Oc2c(cccc2[N+](=O)[O-])C1O (stereo unspecified)
inactive: A498 > 100 µM | MDA-MB-435 > 100 µM | SR > 100 µM | T47D > 100 µM | SW-620 > 100 µM | SF-268 > 100 µM | UACC-257 > 100 µM | SK-MEL-5 > 100 µM | DU-145 > 100 µM | SN12C > 100 µM | U-251 > 100 µM | NCI-H23 > 100 µM | LOX IMVI > 100 µM | PC-3 > 100 µM | SK-MEL-28 > 100 µM | EKVX > 100 µM | HT-29 > 100 µM

S=C(NN=C1NCCCCN1)Nc1ccc(Cl)cc1
inactive: A498 33 µM | MDA-MB-435 22.9 µM | KM12 14.5 µM | SR 11.8 µM | T47D 39.8 µM | SW-620 25.4 µM | SF-268 14.4 µM | UACC-257 14.8 µM | SK-MEL-5 5.36 µM | MCF7 34 µM | U-251 7.71 µM | NCI-H23 18.5 µM | LOX IMVI 11.7 µM | PC-3 13.9 µM | SK-MEL-28 31 µM | EKVX 31.9 µM | HT-29 16.2 µM | SK-OV-3 15.1 µM

CC(=O)OC[C@H]1O[C@@H](O[C@H]2[C@H](OC(C)=O)C=CO[C@@H]2COC(C)=O)C(OC(C)=O)[C@H]2OC(C)(C)O[C@H]21 (stereo partly specified)
inactive: MDA-MB-435 48.1 µM | KM12 > 100 µM | SR 43.3 µM | T47D 64.4 µM | SW-620 64.3 µM | SF-268 > 100 µM | UACC-257 > 100 µM | SK-MEL-5 58.9 µM | MCF7 > 100 µM | SN12C > 100 µM | U-251 > 100 µM | NCI-H23 > 100 µM | LOX IMVI > 100 µM | PC-3 > 100 µM | SK-MEL-28 > 100 µM | EKVX > 100 µM | HT-29 > 100 µM | SK-OV-3 > 100 µM
